Test results from patent US20110280898A1, “INHBB EPITOPE PEPTIDES AND VACCINES CONTAINING THE SAME” (Oncotherapy Science, Inc., priority 2008, published 2011).
“Also recorded” adds a separate entry of the source.

What follows are substances tested on peptide-pulsed T2 cells (assay: IFN-gamma ELISA assay on expanded CTL line). Settings: CTL line expanded from positive well #7, peptide-pulsed target vs target without peptide pulse.
Type: cell-based, human
Excerpt: Monocyte-derived dendritic cells (DCs) were used as antigen-presenting cells (APCs) to induce cytotoxic T lymphocyte (CTL) responses against peptides presented on human leukocyte antigen (HLA). DCs were generated in vitro as described elsewhere (Nakahara S et al., Cancer Res 2003 Jul 15, 63(14): 4112-8). Specifically, peripheral blood mononuclear cells (PBMCs) isolated from a normal volunteer (HLA-A*0201 positive) by Ficoll-Plaque (Pharmacia) solution were separated by adherence to a plastic tissue culture dish (Becton Dickinson) so as to enrich them as the monocyte fraction. The monocyte-enriched population was cultured in the presence of 1000 U/ml of granulocyte-macrophage colony-stimulating factor (GM-CSF) (R&D System) and 1000 U/ml of interleukin (IL)-4 (R&D System) in AIM-V Medium (Invitrogen) containing 2% heat-inactivated autologous serum (AS). After 7 days of culture, the cytokine-induced DCs were pulsed with 20 mcg/ml of each of the synthesized peptides in the presence of 3 mcg/ml of beta2-microglobulin for 3 hr at 37 degrees C. in AIM-V Medium. The generated cells appeared to express DC-associated molecules, such as CD80, CD83, CD86 and HLA class II, on their cell surfaces (data not shown). […]
In the case of “INHBB-A02-9-174: 9-mer HLA-A*0201 binding epitope peptide derived from INHBB (VQASLWLYL)”, the “IFN-gamma production / specific CTL activity of established CTL line” value was “potent IFN-gamma production as compared with the control”.

Same assay, conditions: CTL line expanded from positive well #7, peptide-pulsed target vs target without peptide pulse, listed as SEQ ID NO: 2
“INHBB-A02-9-174: 9-mer HLA-A*0201 binding epitope peptide derived from INHBB (VQASLWLYL)” was tested, and the “IFN-gamma production / specific CTL activity of established CTL line” value was “higher specific CTL activity against the peptide-pulsed target as compared to the activity against target without peptide pulse”.

Each substance was assayed on peptide-pulsed T2 cells (assay: IFN-gamma ELISPOT assay on CTLs induced with INHBB-derived peptides). Settings: target cells pulsed with the peptide vs control not pulsed, after 3rd round of stimulation, day 21.
Type: cell-based, human
Excerpt: Monocyte-derived dendritic cells (DCs) were used as antigen-presenting cells (APCs) to induce cytotoxic T lymphocyte (CTL) responses against peptides presented on human leukocyte antigen (HLA). DCs were generated in vitro as described elsewhere (Nakahara S et al., Cancer Res 2003 Jul 15, 63(14): 4112-8). Specifically, peripheral blood mononuclear cells (PBMCs) isolated from a normal volunteer (HLA-A*0201 positive) by Ficoll-Plaque (Pharmacia) solution were separated by adherence to a plastic tissue culture dish (Becton Dickinson) so as to enrich them as the monocyte fraction. The monocyte-enriched population was cultured in the presence of 1000 U/ml of granulocyte-macrophage colony-stimulating factor (GM-CSF) (R&D System) and 1000 U/ml of interleukin (IL)-4 (R&D System) in AIM-V Medium (Invitrogen) containing 2% heat-inactivated autologous serum (AS). After 7 days of culture, the cytokine-induced DCs were pulsed with 20 mcg/ml of each of the synthesized peptides in the presence of 3 mcg/ml of beta2-microglobulin for 3 hr at 37 degrees C. in AIM-V Medium. The generated cells appeared to express DC-associated molecules, such as CD80, CD83, CD86 and HLA class II, on their cell surfaces (data not shown). These peptide-pulsed DCs were then inactivated by Mitomycin C (MMC) (30 mcg/ml for 30 min) and mixed at a 1:20 ratio with autologous CD8+ T cells, obtained by positive selection with CD8 Positive Isolation Kit (Dynal). These cultures were set up in 48-well plates (Corning); each well contained 1.5×10^4 peptide-pulsed DCs, 3×10^5 CD8+ T cells and 10 ng/ml of IL-7 (R&D System) in 0.5 ml of AIM-V/2% AS medium. Three days later, these cultures were supplemented with IL-2 (CHIRON) to a final concentration of 20 IU/ml. On day 7 and 14, the T cells were further stimulated with the autologous peptide-pulsed DCs. The DCs were prepared each time by the same way described above. CTL was tested against peptide-pulsed T2 cells after the 3rd round of peptide stimulation on day 21 (Tanaka H et al., Br J Cancer 2001 Jan. 5, 84(1): 94-9; Umano Y et al., Br J Cancer 2001 Apr. 20, 84(8): 1052-7; Uchida N et al., Clin Cancer Res 2004 Dec. 15, 10(24): 8577-86; Suda T et al., Cancer Sci 2006 May, 97(5): 411-9; Watanabe T et al., Cancer Sci 2005 Aug, 96(8): 498-506).
Specifically, peptide-pulsed T2 (1×10^4/well) was prepared as stimulator cells. Cultured cells in 48 wells were used as responder cells. IFN-gamma ELISPOT assay and IFN-gamma ELISA assay were performed under manufacture procedure.
With “INHBB-A02-10-162: 10-mer HLA-A*0201 binding epitope peptide derived from INHBB (FISNEGNQNL)” the “IFN-gamma production of peptide-induced CTLs (specific CTL activity)” value (shortened to “IFN-gamma production … (specific CTL activity)”) was “potent IFN-gamma production as compared to the control; also recorded: potent IFN-gamma production as compared with the control”. “INHBB-A02-9-213: 9-mer HLA-A*0201 binding epitope peptide derived from INHBB (NMVEKRVDL)” was tested, and the “IFN-gamma production … (specific CTL activity)” value was “potent IFN-gamma production as compared to the control; also recorded: potent IFN-gamma production as compared with the control”. “INHBB-A02-9-8: 9-mer HLA-A*0201 binding epitope peptide derived from INHBB (ALGAACLLL)” was tested, and the “IFN-gamma production … (specific CTL activity)” value was “potent IFN-gamma production as compared to the control; also recorded: potent IFN-gamma production as compared with the control”. With “INHBB-A02-9-313: 9-mer HLA-A*0201 binding epitope peptide derived from INHBB (RLIGWNDWI)” the “IFN-gamma production … (specific CTL activity)” value was “potent IFN-gamma production as compared to the control; also recorded: potent IFN-gamma production as compared with the control”. In the case of “INHBB-A02-10-237: 10-mer HLA-A*0201 binding epitope peptide derived from INHBB (ALFERGERRL)”, the “IFN-gamma production … (specific CTL activity)” value was “potent IFN-gamma production as compared to the control; also recorded: potent IFN-gamma production as compared with the control”. In the case of “INHBB-A02-9-257: 9-mer HLA-A*0201 binding epitope peptide derived from INHBB (ELAVVPVFV)”, the “IFN-gamma production … (specific CTL activity)” value was “potent IFN-gamma production as compared to the control; also recorded: potent IFN-gamma production as compared with the control”. For “INHBB-A02-9-174: 9-mer HLA-A*0201 binding epitope peptide derived from INHBB (VQASLWLYL)”, the “IFN-gamma production … (specific CTL activity)” value was “potent IFN-gamma production as compared to the control; also recorded: potent IFN-gamma production as compared with the control”. For “INHBB-A02-9-250: 9-mer HLA-A*0201 binding epitope peptide derived from INHBB (VQCDSCQEL)”, the “IFN-gamma production … (specific CTL activity)” value was “potent IFN-gamma production as compared to the control; also recorded: potent IFN-gamma production as compared with the control”. In the case of “INHBB-A02-10-313: 10-mer HLA-A*0201 binding epitope peptide derived from INHBB (RLIGWNDWII)”, the “IFN-gamma production … (specific CTL activity)” value was “potent IFN-gamma production as compared to the control; also recorded: potent IFN-gamma production as compared with the control”. In the case of “INHBB-A02-10-85: 10-mer HLA-A*0201 binding epitope peptide derived from INHBB (RLQMRGRPNI)”, the “IFN-gamma production … (specific CTL activity)” value was “potent IFN-gamma production as compared to the control; also recorded: potent IFN-gamma production as compared with the control”. In the case of “INHBB-A02-10-173: 10-mer HLA-A*0201 binding epitope peptide derived from INHBB (VVQASLWLYL)”, the “IFN-gamma production … (specific CTL activity)” value was “potent IFN-gamma production as compared to the control; also recorded: potent IFN-gamma production as compared with the control”. In the case of “INHBB-A02-10-256: 10-mer HLA-A*0201 binding epitope peptide derived from INHBB (QELAVVPVFV)”, the “IFN-gamma production … (specific CTL activity)” value was “potent IFN-gamma production as compared to the control; also recorded: potent IFN-gamma production as compared with the control”. With “INHBB-A02-9-139: 9-mer HLA-A*0201 binding epitope peptide derived from INHBB (RVSEIISFA)” the “IFN-gamma production … (specific CTL activity)” value was “potent IFN-gamma production as compared to the control; also recorded: potent IFN-gamma production as compared with the control”. In the case of “INHBB-A02-10-179: 10-mer HLA-A*0201 binding epitope peptide derived from INHBB (WLYLKLLPYV)”, the “IFN-gamma production … (specific CTL activity)” value was “potent IFN-gamma production as compared to the control; also recorded: potent IFN-gamma production as compared with the control”.
